Data as given in ChEMBL document CHEMBL1136368, “Antiviral activity of cyclopentenyl nucleosides against orthopox viruses (Smallpox, monkeypox and cowpox)” (Bioorg Med Chem Lett, 2003).
≈ marks a conversion by molar mass, not a printed value.

Tests used:
[1] = system: Vero
[2] = system: Vero; remark: listed apart in the source
[3] = system: Vero; remark: listed apart in the source
[4] = system: Vero; remark: listed apart in the source
[5] = system: Vero; remark: listed apart in the source
[6] = system: Vero; remark: listed apart in the source
[7] = system: Vero; remark: listed apart in the source
[8] = system: Vero; remark: listed apart in the source
[9] = system: Vero; remark: listed apart in the source
[10] = system: Vero; remark: listed apart in the source
[11] = in vitro; conditions: monkey, Vero 76 cells (ATCC CRL 1587)
[12] = in vitro; conditions: rhesus monkey, LLC-MK2 cells (ATCC CRL 7)
[13] = in vitro; conditions: rhesus monkey, LLC-MK2 cells (ATCC CRL 7); remark: listed apart in the source
[14] = in vitro; conditions: rhesus monkey, LLC-MK2 cells (ATCC CRL 7); remark: listed apart in the source
[15] = in vitro; conditions: monkey, Vero 76 cells (ATCC CRL 1587); remark: listed apart in the source
[16] = in vitro; conditions: rhesus monkey, LLC-MK2 cells (ATCC CRL 7); remark: listed apart in the source
[17] = in vitro; conditions: monkey, Vero 76 cells (ATCC CRL 1587); remark: listed apart in the source
[18] = in vitro; conditions: rhesus monkey, LLC-MK2 cells (ATCC CRL 7); remark: listed apart in the source
[19] = in vitro; conditions: monkey, Vero 76 cells (ATCC CRL 1587); remark: listed apart in the source
[20] = in vitro; conditions: monkey, Vero 76 cells (ATCC CRL 1587); remark: listed apart in the source

Structure (SMILES)	EC50 [1] [µg/mL]	EC50 [2] [µg/mL]	EC50 [3] [µg/mL]	EC50 [4] [µg/mL]	EC50 [5] [µg/mL]	IC50 [6] [µg/mL]	IC50 [7] [µg/mL]	IC50 [8] [µg/mL]	IC50 [9] [µg/mL]	IC50 [10] [µg/mL]	selectivity ratio [11]	selectivity ratio [12]	selectivity ratio [13]	selectivity ratio [14]	selectivity ratio [15]	selectivity ratio [16]	selectivity ratio [17]	selectivity ratio [18]	selectivity ratio [19]	selectivity ratio [20]
Nc1ccn([C@@H]2C=C(CO)[C@@H](O)[C@H]2O)c(=O)n1	0.05 (≈ 0.209 µM)	< 0.05	< 0.05	> 100	0.04 (≈ 0.167 µM)	1 (≈ 4.18 µM)	4 (≈ 16.7 µM)	> 100	30 (≈ 125 µM)	40 (≈ 167 µM)	0.3	100	300	> 166	> 20	210	> 80	550	> 2000	1000
Nc1nc(=O)n([C@H]2C=C(CO)[C@H](O)[C@@H]2O)cc1F	1.35 (≈ 5.25 µM)	2.05 (≈ 7.97 µM)	2.63 (≈ 10.2 µM)	1.17 (≈ 4.55 µM)	1.46 (≈ 5.68 µM)	> 100	100 (≈ 389 µM)	39 (≈ 152 µM)	100 (≈ 389 µM)	> 100	86	> 196	189	162	> 74	> 164	49	> 58	15	> 69
OCC1=C[C@@H](n2cnc3c(O)ncnc32)[C@H](O)[C@@H]1O	> 100	> 100	> 100	> 100	> 100	> 100	> 100	> 100	> 100	> 100										
Nc1ncnc2c1ncn2[C@@H]1C=C(CO)[C@@H](O)[C@H]1O [NEOPLANOCIN A]	> 100	0.21 (≈ 0.798 µM)	0.03 (≈ 0.114 µM)	0.14 (≈ 0.532 µM)	> 100	20 (≈ 76 µM)	57 (≈ 217 µM)	50 (≈ 190 µM)		> 100	71	360	12	1	< 0.2	161	271	230	1670	1
